Measurements from US20080194646A1, “Methods For Avoiding Edema in the Treatment of Metabolic, Inflammatory, and Cardiovascular Disorders” (priority 2005, published 2008).

System: C57BL/6j ob/ob Mice
Assay: glucose lowering activity of halofenate analogs in ob/ob mice (Example 14)
Type: in vivo
Conditions: for plasma glucose concentrations vs vehicle: Student unpaired t-test; for Glucose 6 hours / Glucose 30 hours / Glucose 54 hours: plasma glucose; for Predose Glucose: baseline before dosing
Protocol: Male, 8-9 weeks old, C57BL/6J ob/ob mice were purchased from The Jackson Laboratory (Bar Harbor, Me., USA). Animals were housed (4-5 mice/cage) under standard laboratory conditions at 22±3° C. temperature and 50±20% relative humidity, and were maintained on a diet of Purina rodent chow and water ad libitum. Prior to treatment, blood was collected from the tail vein of each animal. Mice that had non-fasting plasma glucose levels between 250 and 500 mg/dl were used. Each treatment group consisted of 8-10 mice that were distributed so that the mean glucose levels were equivalent in each group at the start of the study. Mice were dosed orally by gavage once a day for 1-3 days with either vehicle, (−) halofenic acid, (+) analog 14, 29, 33, 34, 35, 36, 37, or 38 at 125 mg/kg or (−) analog 29, 36, 37 or 38 at 150 mg/kg. Compounds were delivered in a liquid formulation containing 5% (v/v) dimethyl sulfoxide (DMSO), 1% (v/v) tween 80 and 0.9% (w/v) methylcellulose. The gavage volume was 10 ml/kg. Blood samples were taken at 6 hours after the each dose and analyzed for plasma glucose. Food intake and body weight were measured daily. Plasma glucose concentrations were determined colorimetrically using glucose oxidase method (Sigma Chemical Co, St. Louis, Mo., USA). Significant difference between groups (comparing drug-treated to vehicle-treated) was evaluated using the Student unpaired t-test.

[1] = 125 mg/kg oral gavage once a day for 1-3 days
[2] = 125 mg/kg oral gavage once a day
[3] = group later dosed 125 mg/kg orally
[4] = 150 mg/kg oral gavage, single dose
[5] = group later dosed 150 mg/kg orally

SMILES | plasma glucose concentrations vs vehicle [1] | Glucose 6 hours [2] | Glucose 30 hours [2] | Glucose 54 hours [2] | Predose Glucose [3] | plasma glucose concentrations vs vehicle [4] | Glucose 6 hours [4] | Predose Glucose [5]
NC(=O)COC(=O)C(Oc1cccc(C(F)(F)F)c1)c1ccc(Cl)cc1 (racemic) [(±)Analog 37] | significantly lowered plasma glucose concentrations at 54 hours | 345.4 ± 19.7 mg/dL | 312.5 ± 21.7 mg/dL | 285.1 ± 14.7 mg/dL | 387.4 ± 18.8 mg/dL | – | – | –
O=C(NCCOC(=O)C(Oc1cccc(C(F)(F)F)c1)c1ccc(Cl)cc1)c1ccccc1 (racemic) [(±)Analog 36] | significantly lowered plasma glucose concentrations at 30 and 54 hours | 300.5 ± 27.3 mg/dL | 249.7 ± 8.6 mg/dL | 272.2 ± 18.4 mg/dL | 329.7 ± 17.6 mg/dL | – | – | –
CN(C)C(=O)COC(=O)C(Oc1cccc(C(F)(F)F)c1)c1ccc(Cl)cc1 (racemic) [(±)Analog 38] | significantly lowered plasma glucose concentrations at 6, 30 and 54 hours | 303.2 ± 18.2 mg/dL | 245.6 ± 15.6 mg/dL | 243.1 ± 10.6 mg/dL | 329.4 ± 18.9 mg/dL | – | – | –
CC(=O)NCCOC(=O)C(Oc1cccc(C(F)(F)F)c1)c1ccc(Br)cc1 (racemic) [(±)Analog 29] | significantly lowered plasma glucose concentrations at 6, 30 and 54 hours | 299.7 ± 24.5 mg/dL | 237.4 ± 14.9 mg/dL | 293.3 ± 9.7 mg/dL | 387.1 ± 16.0 mg/dL | – | – | –
NC(=O)COC(=O)C(Oc1cccc(C(F)(F)F)c1)c1ccc(Cl)cc1 (single isomer, unassigned; (-)) [(−)Analog 37] | – | – | – | – | – | significantly reduced plasma glucose concentrations at 6 hours | 271.7 ± 22.5 mg/dL | 373.4 ± 16.1 mg/dL
CC(=O)NCCOC(=O)C(Oc1cccc(C(F)(F)F)c1)c1ccc(Br)cc1 (single isomer, unassigned; (-)) [(−)Analog 29] | – | – | – | – | – | significantly reduced plasma glucose concentrations at 6 hours | 333.5 ± 16.1 mg/dL | 372.2 ± 17.1 mg/dL
O=C(NCCOC(=O)C(Oc1cccc(C(F)(F)F)c1)c1ccc(Cl)cc1)c1ccccc1 (single isomer, unassigned; (-)) [(−)Analog 36] | – | – | – | – | – | significantly reduced plasma glucose concentrations at 6 hours | 281.1 ± 18.2 mg/dL | 373.2 ± 15.5 mg/dL
CC(=O)NCCOC(=O)C(Oc1cccc(C(F)(F)F)c1)c1ccc(F)cc1 (racemic) [(±)Analog 14] | significantly lowered plasma glucose concentrations at 6, 30 and 54 hours | 328.9 ± 34.1 mg/dL | 267.0 ± 21.3 mg/dL | 293.0 ± 29.4 mg/dL | 361.0 ± 17.1 mg/dL | – | – | –
CCCCOC(=O)C(Oc1cccc(C(F)(F)F)c1)c1ccc(Cl)cc1 (racemic) [(±)Analog 33] | significantly lowered plasma glucose concentrations at 6 and 54 hours | 227.5 ± 13.2 mg/dL | 298.0 ± 15.3 mg/dL | 286.6 ± 9.9 mg/dL | 292.0 ± 19.1 mg/dL | – | – | –
CN(C)CCOC(=O)C(Oc1cccc(C(F)(F)F)c1)c1ccc(Cl)cc1 (racemic) [(±)Analog 35] | significantly lowered plasma glucose concentrations at 30 and 54 hours | 319.6 ± 26.7 mg/dL | 276.8 ± 17.6 mg/dL | 286.2 ± 31.5 mg/dL | 387.0 ± 18.0 mg/dL | – | – | –
CN(C)C(=O)COC(=O)C(Oc1cccc(C(F)(F)F)c1)c1ccc(Cl)cc1 (single isomer, unassigned; (-)) [(−)Analog 38] | – | – | – | – | – | significantly reduced plasma glucose concentrations at 6 hours | 251.2 ± 23.6 mg/dL | 373.4 ± 16.1 mg/dL
